Experimental data from patent US20050014830A1 (priority 2003, published 2005).
Read-outs that look alike come from different tables or passages of the source.

Columns and labels:
Serratia bacterium = system: Serratia bacterium; set-up: species or system Serratia species
SARS virus = system: SARS virus; set-up: species or system SARS virus (coronavirus)

O=C(O)CCCCCCCO [8-hydroxyoctanoic acid]
surface roughness of the bacterium measured by AFM (Serratia bacterium): increased
AFM height of the enterovirus virion after treatment (enterovirus): about 1,300 nm
conformation of the SARS virion (AFM picture) (SARS virus; FIG. 9B, a few minutes after treatment): disruption
conformation of the SARS virion (AFM picture) (SARS virus; FIG. 9C, a few more minutes into treatment): collapsed further more
conformation of the SARS virion (AFM picture) (SARS virus; FIG. 9D, final stage of treatment): completely killed
